In US5637619A, “Antitumor 2-aminocarbonyl-1, 2-bis(methylsulfonyl)-1-(substituted)hydrazines” (Yale University, priority 1995, dated 1997):
Where “and” joins values, the source holds several entries; their conditions need not be identical. Equal entries are not always repeated.

Tests used:
[1] = Body weight change / toxicity in L1210-bearing mice; type: in vivo, mice (CD2F1); conditions: for Av. Wt. Change %: L1210-bearing mice
Protocol: Leukemia L1210 cells were obtained from the Frederick Cancer Research Facility, Division of Cancer Treatment Tumor Repository of the National Cancer Institute, and were maintained by serial passage in tissue culture. Every 8 weeks, tumor cells were injected intraperitoneally into five donor CD2 F1 mice 8- to 10- weeks of age and were allowed to grow for 7 days. The peritoneal fluid was withdrawn and the suspension was centrifuged for 5 min at 1600 g. The supernatant was decanted and 10^5 cells/mL were seeded into 10 mL of RPMI 1640 medium supplemented with 10% fetal bovine serum and 1% L-glutamine, and once again maintained in culture. To assay for antineoplastic activity, 0.1 mL of the cell suspension containing 10^5 L1210 leukemia cells was injected ip into each recipient mouse. Test compounds were administered over a wide range of dosage levels, beginning 24 h after tumor implantation, and continued once daily for 6 consecutive days. All drugs were administered ip as a solution in 100% dimethylsulfoxide (DMSO), in a volume not exceeding 0.025 mL. […] Mice were weighed during the course of the experiments, and the percentage change in body weight from onset to termination of therapy was used as an indication of drug toxicity. Determination of the sensitivity of neoplasms to these agents was based upon the prolongation of survival time afforded by the drug treatments.
^a Administered ip once daily for six consecutive days, beginning 24 hours after tumor implantation, with 5-10 mice being used per group. ^b Average percent change in body weight from onset to termination of therapy. ^c % T/C=average survival time of treated/control mice×100; cures (>60-day survivors) are listed separately and are not included in this calculation.

[2] = system: M109 lung carcinoma; test: M109 lung carcinoma, ip implanted; type: in vivo, BALB/c mice; conditions: 50 mg/kg/injection, q4d × 3, ip, 10% DMSO in saline; highest dose tested
Protocol: The M5076 reticulum cell sarcoma was passaged biweekly by sc transfer of tumor fragments into C57BL/6 mice, and the M109 lung carcinoma was similarly passaged in BALB/c mice. The LX-1 human lung carcinoma was passaged sc every two to three weeks in BALB/c-background athymic (nu/nu) mice. For use in these systems, compound III was dissolved in: (a) 100% DMSO and administered by iv injection in a fixed volume of 10 microliters; or (b) DMSO diluted with saline to a final concentration of 10% DMSO and administered iv in a volume of 0.01 milliliter/g of body weight. […] Mitomycin C and cyclophosphamide were dissolved and administered in saline. BCNU and MeCCNU were dissolved in ethanol and diluted 1:9 (v/v) with water prior to administration.
Five mice per group were employed in experiments with the B16F10 melanoma, and 8 mice per group with the M5076 sarcoma, the M109 carcinoma and the LX-1 carcinoma. […] Therapeutic results are presented in terms of: (a) increases in lifespan reflected by the relative median survival time (MST) of treated versus control groups (i.e., %T/C values), and by long-term survivors, and (b) primary tumor growth inhibition (i.e., T-C values) determined by calculating the relative median times for treated (T) and control untreated (C) mice to grow tumors of a 0.5 g size for the LX-1 carcinoma or a 1 g size for the murine neoplasms. […]

[3] = system: B16F10 melanoma; test: B16F10 melanoma, tumor growth delay in mice; type: in vivo, C57BL/6 mice; conditions: 100% DMSO
Protocol: B16F10 melanoma cells were grown in vitro as monolayers in minimum essential medium with Hank's salts supplemented with 10% fetal bovine serum and 1% 200 mM L-glutamine solution. Solid tumors were produced in C57BL/6 female mice 12- to 14-weeks of age by the intradermal injection in the right flank of each mouse of 0.1 mL of a cell suspension containing 10^6 B16F10 cells/mL from freshly trypsinized cultures. After 10-12 days, animals bearing approximately 100 mm^3 tumors were treated ip with compound III or IV dissolved in 100% DMSO for 6 consecutive days, and tumor volumes were measured on alternate days until reaching 1000 mm^3.
Five mice per group were employed in experiments with the B16F10 melanoma, and 8 mice per group with the M5076 sarcoma, the M109 carcinoma and the LX-1 carcinoma. A minimum of two dose levels per compound were included in each evaluation and drug therapy was initiated 24 h after tumor implantation for the M5076 sarcoma and M109 carcinoma. In the LX-1 experiment, tumor bearing mice were selected and sorted into treatment and control groups on day 6 post-tumor implant such that all tumor weights ranged from 50-100 mg and median tumor weights per group were reasonably similar. Therapeutic results are presented in terms of: (a) increases in lifespan reflected by the relative median survival time (MST) of treated versus control groups (i.e., %T/C values), and by long-term survivors, and (b) primary tumor growth inhibition (i.e., T-C values) determined by calculating the relative median times for treated (T) and control untreated (C) mice to grow tumors of a 0.5 g size for the LX-1 carcinoma or a 1 g size for the murine neoplasms. Tumor weights were interchangeable with tumor size on the basis of 1 mm^3 =1 mg. […] The activity criterion for tumor inhibition was a delay in tumor growth consistent with one log10 cell kill (LCK). The absolute T-C value needed to attain this level of efficacy varied from experiment to experiment and depended upon the tumor volume doubling time of the control mice in each study. Treated mice dying prior to day 10 in the ip M109 experiment, or dying before their tumors achieved 0.5 g for the LX-1 carcinoma or 1 g in size for all other sc tumor models, were considered to have died from drug toxicity. Groups of mice with more than one death due to drug toxicity were not used in the evaluation of antitumor efficacy. Statistical evaluations of data were performed using Gehan's generalized Wilcoxan test (Gehan, Biometrika, 1965, 52, 203-233).
In addition, both compounds III and IV were evaluated in 100% DMSO against the B16F10 melanoma implanted intradermally (id) in mice (Table III). In an initial experiment, compound IV produced a T-C of 15.5 days at a daily dosage level of 20 mg/kg administered once daily for six consecutive days beginning on day 10 post-implant. In the same experiment, using the same treatment schedule, a growth delay of 11 days was obtained with compound III. […] Thus, the aminocarbonyl component in this class of agents influences the magnitude of the antitumor effects obtained against the B16F10 melanoma.

CS(=O)(=O)N(CCCl)N(C(=O)NCCCl)S(C)(=O)=O [Compound III, 1,2-bis(methylsulfonyl)-1-(2-chloroethyl)-2-(2-chloroethyl)aminocarbonylhydrazine]
Av. Wt. Change % ([1]; 10 mg/kg ip once daily × 6): -4.7% | Av. Wt. Change % ([1]; 15 mg/kg ip once daily × 6): -4.0% | Av. Wt. Change % ([1]; 20 mg/kg ip once daily × 6): -10.4% | loss in body weight ([1]; 20 mg/kg × 6): 10.4% | toxicity (in words) ([1]; 20 mg/kg × 6): somewhat toxic | %T/C (median survival time) [2]: 267% | T-C, growth delay ([3]; experiment a, 20 mg/kg/injection, qd × 6 from day 10, ip, 20 mg/kg): 11 days and 11.0 days | T-C ([3]; experiment b, 20 mg/kg/injection, qd × 6 from day 12, ip): 5.5 days | T-C, growth delay ([3]; experiment b, 30 mg/kg/injection, qd × 6 from day 12, ip): 13.5 days
